The results in this text go back to PubChem BioAssay (NCI).

Some test systems named below: HS 578T breast; SK-OV-3 ovarian; OVCAR-8 ovarian; M14 melanoma; UACC-257 melanoma; SF-295 CNS; DU-145 prostate; A549 NSCLC; HCC-2998 colon; NCI-H522 lung.
What all share (assay): growth of human tumour cells (NCI), 48 h

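Each compound was tested at five concentrations against cells in 96-well plates for 48 hours. GI50: concentration for 50% inhibition of growth. TGI: total growth inhibition.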

Regarding `CC(=O)c1ccc2c(c1)oc(=O)n2CCN(C)C`, the TGI in the assay on HS 578T breast, in the assay on SK-OV-3 ovarian, with OVCAR-8 ovarian, in the assay with M14 melanoma, with UACC-257 melanoma and in the assay with SF-295 CNS was more than 100 µM throughout.

On to `O=c1c2cc(-c3ccccc3)cnc2sn1-c1ccc([N+](=O)[O-])cc1`, for which the TGI with DU-145 prostate, in the assay on SK-OV-3 ovarian, with OVCAR-8 ovarian, with A549 NSCLC, in the assay on M14 melanoma and in the assay with HCC-2998 colon was more than 100 µM in each case. Besides, the TGI with NCI-H522 lung is 75.4 µM; in the assay with UACC-257 melanoma, more than 100 µM; in the assay on SF-295 CNS it was more than 100 µM.

As for `COc1ccc(C2C(C(=O)O)=C(COC(C)=O)Oc3cc4c(cc32)OCO4)cc1` (stereo not given), the TGI with SK-OV-3 ovarian, in the assay on OVCAR-8 ovarian, with A549 NSCLC, in the assay with M14 melanoma, in the assay with UACC-257 melanoma and in the assay with SF-295 CNS was more than 100 µM in each case.

For the compound `Oc1[nH]c2ccccc2c1N=NC(=S)N1CCCCCC1`, the TGI with DU-145 prostate worked out at 10.5 µM; in the assay on SK-OV-3 ovarian, 4.79 µM; in the assay on OVCAR-8 ovarian, 2.67 µM; in the assay on A549 NSCLC it was 6.57 µM; with M14 melanoma it was 2.52 µM; in the assay with HCC-2998 colon, 7.1 µM. For the same compound, the values for the TGI in the assay on NCI-H522 lung, in the assay with UACC-257 melanoma and with SF-295 CNS were 12.6 µM, 5.88 µM and 3.86 µM, respectively.

For `Brc1cccc(C2(CCCC3(c4cccc(Br)n4)OCCO3)OCCO2)n1`, the TGI with SK-OV-3 ovarian, in the assay with A549 NSCLC, in the assay on M14 melanoma, in the assay with HCC-2998 colon, with NCI-H522 lung and in the assay with UACC-257 melanoma was more than 100 µM in each case. The TGI in the assay with SF-295 CNS was more than 100 µM.

With `CC(=O)OCC1OC(OCC2OC(N3C(=S)N[C@H]([C@@H](O)[C@H](O)[C@H](O)CO)[C@H]3O)C(OC(C)=O)C(OC(C)=O)C2OC(C)=O)C(OC(C)=O)C(OC(C)=O)C1OC(C)=O` (stereo not given in full), the TGI in the assay on DU-145 prostate, in the assay with SK-OV-3 ovarian, in the assay with OVCAR-8 ovarian, in the assay on A549 NSCLC, in the assay on M14 melanoma and in the assay with HCC-2998 colon was more than 100 µM in each case. For the same compound, the TGI with NCI-H522 lung and in the assay with SF-295 CNS was more than 100 µM throughout.

On to `Cc1ccnc(NC(=S)Nc2ccccc2Cl)c1`, for which the TGI with DU-145 prostate, with HS 578T breast, with SK-OV-3 ovarian, in the assay on OVCAR-8 ovarian, in the assay on A549 NSCLC and in the assay on M14 melanoma was more than 100 µM each time. In addition, the TGI in the assay with NCI-H522 lung, in the assay on UACC-257 melanoma and with SF-295 CNS was more than 100 µM in each case.

On to `O=C(/C=C/c1cccs1)c1ccsc1`, for which the TGI in the assay with DU-145 prostate was more than 100 µM; in the assay with SK-OV-3 ovarian, more than 100 µM; in the assay with OVCAR-8 ovarian, 96.5 µM; with A549 NSCLC it was more than 100 µM; with M14 melanoma it was more than 100 µM; with HCC-2998 colon, 34.9 µM. Besides, the TGI in the assay on UACC-257 melanoma is 52.3 µM; in the assay on SF-295 CNS it was more than 100 µM.

Regarding `NCCCCNCCCN`, the TGI with DU-145 prostate, with SK-OV-3 ovarian, in the assay with OVCAR-8 ovarian, in the assay on A549 NSCLC, in the assay on M14 melanoma and in the assay on HCC-2998 colon was more than 100 µM each time. Moreover, the TGI with NCI-H522 lung, with UACC-257 melanoma and in the assay on SF-295 CNS was more than 100 µM each time.

In the case of `CC(C)(C)OC(=O)NC(CCCCNC(=O)OCc1ccccc1)C(=O)NC(CCCCNC(=O)OCc1ccccc1)C(=O)ON1C(=O)CCC1=O` (stereo not given), the TGI with HS 578T breast, in the assay on OVCAR-8 ovarian, with A549 NSCLC, with M14 melanoma, in the assay with HCC-2998 colon and in the assay on UACC-257 melanoma was more than 100 µM in each case.

On to `O=c1[nH]c(=O)n(C2CC(O)C(CO)O2)cc1NN=NCc1ccccc1` (stereo not given), for which the TGI in the assay on DU-145 prostate, in the assay with HS 578T breast, in the assay on SK-OV-3 ovarian, in the assay with OVCAR-8 ovarian, in the assay on A549 NSCLC and in the assay with M14 melanoma was more than 100 µM in each case. In addition, the TGI in the assay with NCI-H522 lung, with UACC-257 melanoma and in the assay with SF-295 CNS was more than 100 µM each time.

For the compound `Sc1nnc(-c2ccccc2Nc2ccccc2-c2nnc(S)n2-c2ccccc2)n1-c1ccccc1`, the TGI was more than 100 µM in the assay on DU-145 prostate; more than 100 µM in the assay with OVCAR-8 ovarian; more than 100 µM with M14 melanoma; more than 100 µM in the assay with HCC-2998 colon; 81.8 µM with NCI-H522 lung; more than 100 µM in the assay with UACC-257 melanoma. The TGI with SF-295 CNS was more than 100 µM.

Regarding `FC1CCN(C2(c3cccs3)CCCCC2)CC1`, the TGI with DU-145 prostate, in the assay with SK-OV-3 ovarian, in the assay on OVCAR-8 ovarian, in the assay with A549 NSCLC, in the assay on M14 melanoma and in the assay on HCC-2998 colon was more than 100 µM each time. Besides, the TGI in the assay with NCI-H522 lung, in the assay on UACC-257 melanoma and in the assay with SF-295 CNS was more than 100 µM each time.

Regarding `CCOC(=O)N(CC)c1c(C(F)(F)F)cc(-c2ccccc2)[nH]c1=O`, the TGI in the assay with DU-145 prostate, with SK-OV-3 ovarian, with OVCAR-8 ovarian, in the assay with A549 NSCLC, in the assay on M14 melanoma and in the assay with HCC-2998 colon was more than 100 µM each time. In addition, the TGI with UACC-257 melanoma and with SF-295 CNS was more than 100 µM each time.

On to `Cc1cc2nc3n(c2cc1C)C(c1c(F)cccc1F)SC3` (stereo not given), for which the TGI was 54.2 µM with HS 578T breast; more than 100 µM in the assay with SK-OV-3 ovarian; more than 100 µM in the assay with OVCAR-8 ovarian; 42.4 µM with A549 NSCLC; 40.8 µM in the assay with M14 melanoma; 47.8 µM in the assay with HCC-2998 colon. The figures for the TGI with NCI-H522 lung, with UACC-257 melanoma and in the assay on SF-295 CNS were 44.1 µM, more than 100 µM and 54.2 µM, respectively.

Take `CCCCNC(=S)/N=C/c1c(O)c2ccccc2oc1=O`: the TGI in the assay on DU-145 prostate, in the assay with SK-OV-3 ovarian, with OVCAR-8 ovarian, in the assay on A549 NSCLC, with M14 melanoma and with HCC-2998 colon was more than 100 µM in each case. For the same compound, the TGI in the assay with UACC-257 melanoma and in the assay on SF-295 CNS was more than 100 µM in each case.

Regarding `C[C@]12CCC(=O)C=C1CC[C@@H]1[C@@H]2C(=O)C[C@@]2(C)[C@H]1CC[C@]2(O)C(=O)CO`, the TGI in the assay on SK-OV-3 ovarian, in the assay on OVCAR-8 ovarian, in the assay with A549 NSCLC, in the assay with M14 melanoma, in the assay on HCC-2998 colon and in the assay on NCI-H522 lung was more than 100 µM throughout. In addition, the TGI in the assay on SF-295 CNS was more than 100 µM.

Turning to `CC1NOC(NS(=O)(=O)c2ccc(N=Nc3c(O)c(C(=O)O)cc4ccccc34)cc2)C1C` (stereo not given), the TGI with HS 578T breast, with SK-OV-3 ovarian, with OVCAR-8 ovarian, in the assay with A549 NSCLC, with M14 melanoma and with HCC-2998 colon was more than 100 µM in each case. Also, the TGI with NCI-H522 lung, in the assay on UACC-257 melanoma and with SF-295 CNS was more than 100 µM in each case.

For `ClCc1c(-c2ccccc2)nn(-c2ccccc2)c1CCl`, the TGI in the assay on DU-145 prostate came out at 29 µM; in the assay with OVCAR-8 ovarian it was 30.8 µM; with A549 NSCLC it was 37.3 µM; in the assay with M14 melanoma it was 35.5 µM; with HCC-2998 colon, 26.8 µM; in the assay on NCI-H522 lung it was 0.416 µM. In addition, the results for the TGI with UACC-257 melanoma and with SF-295 CNS were 34.1 µM and 32.8 µM, respectively.

For the compound `CC(=O)c1ccc(NC(=O)/C(=N\NC(N)=O)C(C#N)CC(C)(C)C=O)cc1` (stereo not given), the TGI with SK-OV-3 ovarian, in the assay on OVCAR-8 ovarian, in the assay on A549 NSCLC, in the assay on M14 melanoma, with HCC-2998 colon and with NCI-H522 lung was more than 100 µM each time. Further, the TGI in the assay on UACC-257 melanoma and in the assay with SF-295 CNS was more than 100 µM each time.

Consider `c1ccc([C@H]2CN3CCSC3=N2)cc1`, for which the TGI in the assay on DU-145 prostate, in the assay on SK-OV-3 ovarian, in the assay with OVCAR-8 ovarian, with A549 NSCLC, with M14 melanoma and with HCC-2998 colon was more than 100 µM throughout. The TGI in the assay with NCI-H522 lung, with UACC-257 melanoma and with SF-295 CNS was more than 100 µM throughout.

In the case of `O=C(c1ccc(Cl)cc1)N(C(=S)N1CCN(c2ccccn2)CC1)c1ccccc1`, the TGI with SK-OV-3 ovarian, in the assay on OVCAR-8 ovarian, with A549 NSCLC, with M14 melanoma, in the assay on NCI-H522 lung and with UACC-257 melanoma was more than 100 µM each time. The same compound returned a TGI with SF-295 CNS of more than 100 µM.

Regarding `O=C1C=CC2(O[C@@H](Cc3ccccc3)[C@H](Cc3ccccc3)O2)C(SC(=O)c2ccccc2)C1` (stereo not given in full), the TGI in the assay with DU-145 prostate is 11.8 µM; in the assay with HS 578T breast it was 4.57 µM; in the assay on SK-OV-3 ovarian, 8.04 µM; with OVCAR-8 ovarian, 0.549 µM; with A549 NSCLC, 16.1 µM; in the assay with M14 melanoma, 2.99 µM. Further, the figures for the TGI in the assay on UACC-257 melanoma and in the assay on SF-295 CNS were 2.55 µM and 4.28 µM, respectively.

As for `NCCCn1c2c(c3ccc([N+](=O)[O-])cc3c1=O)C(=O)c1cc3c(cc1-2)OCO3`, the GI50 in the assay on DU-145 prostate is less than 0.01 µM; in the assay on SK-OV-3 ovarian, 0.32 µM; with OVCAR-8 ovarian it was 0.106 µM; in the assay with UACC-257 melanoma, 0.372 µM. In addition, the TGI with DU-145 prostate came to 1.48 µM; in the assay with OVCAR-8 ovarian, 0.402 µM; in the assay on UACC-257 melanoma, 3 µM.
